Laboratory results: US20220079944A1, “2H-INDAZOLE DERIVATIVES AS THERAPEUTIC AGENTS FOR BRAIN CANCERS AND BRAIN METASTASES” (BETA PHARMA, INC., priority 2019, published 2022)
Where two headings read alike, the source gives them in different places.

Columns and labels:
MDR1 (P-gp) = assay: in vitro; conditions: dog, MDCK-MDR1
Description: MDR1-MDCK cell monolayers were grown to confluence on collagen-coated, microporous membranes in 12-well assay plates. […] The permeability assay buffer was Hanks' balanced salt solution (HBSS) containing 10 mM HEPES and 15 mM glucose at a pH of 7.4. The buffer in the receiver chamber also contained 1% bovine serum albumin. The dosing solution concentration was 5 μM of test article in the assay buffer+/−1 μM valspodar. Cells were first pre-incubated for 30 minutes with HBSS containing +/−1 μM valspodar. Cell monolayers were dosed on the apical side (A-to-B) or basolateral side (B-to-A) and incubated at 37° C. with 5% CO2 in a humidified incubator. Samples were taken from the donor and receiver chambers at 120 minutes. Each determination was performed in duplicate. The flux of lucifer yellow was also measured post-experimentally for each monolayer to ensure no damage was inflicted to the cell monolayers during the flux period. All samples were assayed by LC-MS/MS using electrospray ionization.

p-glycoprotein (P-gp) = p-glycoprotein (P-gp) (Homo sapiens, UniProt P08183); conditions: background statement; cited from earlier work
[1] = Brain concentration and brain/plasma ratio in mouse after 10 mg/kg p.o.; type: in vivo; conditions: PO 10 mg/kg
[2] = brain, po, 10 mg/kg, individual animal R1, read-out: Brain Concentration, R1 + 3n
[3] = brain, po, 10 mg/kg, individual animal R2, read-out: Brain Concentration, R2 + 3n
[4] = brain, po, 10 mg/kg, individual animal R3, read-out: Brain Concentration, R3 + 3n
[5] = brain, po, 10 mg/kg, mean, read-out: Brain Concentration, Mean PO
[6] = plasma, po, 10 mg/kg, individual animal R1, read-out: Plasma Concentration, R1 + 3n
[7] = plasma, po, 10 mg/kg, individual animal R2, read-out: Plasma Concentration, R2 + 3n
[8] = plasma, po, 10 mg/kg, individual animal R3, read-out: Plasma Concentration, R3 + 3n
[9] = plasma, po, 10 mg/kg, mean, read-out: Plasma Concentration, Mean PO

p-glycoprotein (P-gp), sequence (P08183 whole entry): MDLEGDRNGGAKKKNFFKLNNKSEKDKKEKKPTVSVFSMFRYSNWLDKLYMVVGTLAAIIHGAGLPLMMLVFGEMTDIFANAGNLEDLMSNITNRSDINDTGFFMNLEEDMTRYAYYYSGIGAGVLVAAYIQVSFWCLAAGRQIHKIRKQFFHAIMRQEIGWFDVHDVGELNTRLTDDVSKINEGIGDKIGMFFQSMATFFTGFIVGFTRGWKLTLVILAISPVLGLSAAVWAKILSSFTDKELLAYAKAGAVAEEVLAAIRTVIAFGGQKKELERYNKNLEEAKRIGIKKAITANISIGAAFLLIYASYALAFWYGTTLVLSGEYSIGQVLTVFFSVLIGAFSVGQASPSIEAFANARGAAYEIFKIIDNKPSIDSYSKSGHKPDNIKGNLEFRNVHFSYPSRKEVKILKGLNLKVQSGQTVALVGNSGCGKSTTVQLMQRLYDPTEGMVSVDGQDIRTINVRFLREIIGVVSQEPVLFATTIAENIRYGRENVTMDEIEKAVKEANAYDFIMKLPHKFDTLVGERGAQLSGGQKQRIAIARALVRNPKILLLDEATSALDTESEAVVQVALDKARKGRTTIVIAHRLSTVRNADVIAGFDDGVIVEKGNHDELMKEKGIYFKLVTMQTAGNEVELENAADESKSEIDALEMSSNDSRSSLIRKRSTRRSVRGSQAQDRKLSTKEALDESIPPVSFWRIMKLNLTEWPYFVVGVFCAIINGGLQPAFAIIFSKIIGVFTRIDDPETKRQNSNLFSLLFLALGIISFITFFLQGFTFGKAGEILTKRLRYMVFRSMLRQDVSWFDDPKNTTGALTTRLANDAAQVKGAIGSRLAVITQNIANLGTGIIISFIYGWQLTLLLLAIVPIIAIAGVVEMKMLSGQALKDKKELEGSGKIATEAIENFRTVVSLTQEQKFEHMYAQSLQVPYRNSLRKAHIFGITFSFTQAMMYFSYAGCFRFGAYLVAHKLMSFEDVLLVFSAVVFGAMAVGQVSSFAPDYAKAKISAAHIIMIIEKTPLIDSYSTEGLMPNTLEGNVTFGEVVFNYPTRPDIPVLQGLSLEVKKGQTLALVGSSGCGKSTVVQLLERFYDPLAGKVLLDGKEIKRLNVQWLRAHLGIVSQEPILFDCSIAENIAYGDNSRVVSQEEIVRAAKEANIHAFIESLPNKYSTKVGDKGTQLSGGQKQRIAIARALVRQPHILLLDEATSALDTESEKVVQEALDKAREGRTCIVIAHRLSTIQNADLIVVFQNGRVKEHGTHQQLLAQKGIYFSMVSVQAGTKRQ

**Q.** For `C[C@H]1O[C@@H](O[C@H]2[C@@H](O)C[C@H](O[C@H]3[C@@H](O)C[C@H](O[C@H]4CC[C@@]5(C)[C@H](CC[C@@H]6[C@@H]5C[C@@H](O)[C@]5(C)[C@@H](C7=CC(=O)OC7)CC[C@]65O)C4)O[C@@H]3C)O[C@@H]2C)C[C@H](O)[C@@H]1O` [Digoxin], which Papp A→B (MDR1 (P-gp)) is on record?
**A.** 0.05 ×10⁻⁶ cm/s

**Q.** What about the Papp B→A (MDR1 (P-gp)) of the same compound?
**A.** 13.9 ×10⁻⁶ cm/s

**Q.** And the efflux ratio (MDR1 (P-gp))?
**A.** 254

**Q.** Which Papp (MDR1 (P-gp)) does the source give for `CC(C)NCC(O)COc1cccc2ccccc12` (stereo not drawn) [Propranolol] here?
**A.** 12.8 ×10⁻⁶ cm/s

**Q.** Which P-gp substrate (p-glycoprotein (P-gp)) does the source give for `CCN1CCN(Cc2ccc(Nc3ncc(F)c(-c4cc(F)c5nc(C)n(C(C)C)c5c4)n3)nc2)CC1` [abemaciclib, reference compound] here?
**A.** p-glycoprotein (P-gp) substrates

**Q.** What about the “AUC0-last Ratio, brain/plasma (B/P) ratio” value ([1]; brain AUC0-last / plasma AUC0-last, 10 mg/kg) of the same compound?
**A.** 0.432

**Q.** And the “Brain AUC0-last” value ([1]; brain, from mean concentrations)?
**A.** 4085 ng·h/g

**Q.** What about the AUC(0-t) ([1]; plasma, from mean concentrations, read-out: Plasma AUC0-last) of the same compound?
**A.** 9450 ng·h/mL

**Q.** What about the concentration at 2 h [1, 2] of the same compound?
**A.** 216 ng/g

**Q.** What about the concentration at 2 h [1, 3] of the same compound?
**A.** 326 ng/g

**Q.** What about the concentration at 2 h [1, 4] of the same compound?
**A.** 302 ng/g

**Q.** And the concentration at 2 h [1, 5]?
**A.** 282 ng/g

**Q.** And the concentration at 4 h [1, 2]?
**A.** 452 ng/g

**Q.** And the concentration at 4 h [1, 3]?
**A.** 370 ng/g

**Q.** What about the concentration at 4 h [1, 4] of the same compound?
**A.** 469 ng/g

**Q.** And the concentration at 4 h [1, 5]?
**A.** 430 ng/g

**Q.** What about the concentration at 8 h [1, 2] of the same compound?
**A.** 421 ng/g

**Q.** And the concentration at 8 h [1, 3]?
**A.** 277 ng/g

**Q.** And the concentration at 8 h [1, 4]?
**A.** 341 ng/g

**Q.** What about the concentration at 8 h [1, 5] of the same compound?
**A.** 347 ng/g

**Q.** And the concentration at 24 h [1, 2]?
**A.** 6.51 ng/g

**Q.** What about the concentration at 24 h [1, 3] of the same compound?
**A.** 14.8 ng/g

**Q.** And the concentration at 24 h [1, 4]?
**A.** 10.6 ng/g

**Q.** And the concentration at 24 h [1, 5]?
**A.** 10.6 ng/g

**Q.** What about the Kp ([1]; brain, po, 10 mg/kg, brain AUC0-last / plasma AUC0-last, read-out: AUC0-last Ratio, brain/plasma (B/P) ratio) of the same compound?
**A.** 0.43

**Q.** And the concentration at 2 h [1, 6]?
**A.** 633 ng/mL

**Q.** And the concentration at 2 h [1, 7]?
**A.** 1060 ng/mL

**Q.** What about the concentration at 2 h [1, 8] of the same compound?
**A.** 821 ng/mL

**Q.** And the concentration at 2 h [1, 9]?
**A.** 836 ng/mL

**Q.** What about the concentration at 4 h [1, 6] of the same compound?
**A.** 700 ng/mL

**Q.** What about the concentration at 4 h [1, 7] of the same compound?
**A.** 744 ng/mL

**Q.** What about the concentration at 4 h [1, 8] of the same compound?
**A.** 963 ng/mL

**Q.** What about the concentration at 4 h [1, 9] of the same compound?
**A.** 802 ng/mL

**Q.** What about the concentration at 8 h [1, 6] of the same compound?
**A.** 1020 ng/mL

**Q.** What about the concentration at 8 h [1, 7] of the same compound?
**A.** 707 ng/mL

**Q.** And the concentration at 8 h [1, 8]?
**A.** 780 ng/mL

**Q.** And the concentration at 8 h [1, 9]?
**A.** 837 ng/mL

**Q.** What about the concentration at 24 h [1, 6] of the same compound?
**A.** 11.5 ng/mL

**Q.** And the concentration at 24 h [1, 7]?
**A.** 46.7 ng/mL

**Q.** And the concentration at 24 h [1, 8]?
**A.** 16.6 ng/mL

**Q.** And the concentration at 24 h [1, 9]?
**A.** 24.9 ng/mL

**Q.** With `CC(=O)c1c(C)c2cnc(Nc3ccc(N4CCNCC4)cn3)nc2n(C2CCCC2)c1=O` [palbociclib] as the compound, how does the P-gp substrate (p-glycoprotein (P-gp)) read?
**A.** p-glycoprotein (P-gp) substrates
